# Source: patent US8399430B2, “Alkylated semi synthetic glycosaminoglycosan ethers, and methods for making and using thereof” (University of Utah Research Foundation, priority 2008, dated 2013)
# Entries after “also recorded” stand apart in the source; their conditions may differ.
# Experiments:
# RAGE/CML-BSA = target: T1, RAGE/CML-BSA (Homo sapiens, UniProt Q15109); test: Solid phase binding assay, RAGE to CML-BSA; settings: Table 2
# T1 construct: purchased R&D Systems (Minneapolis, Minn.)
# Method: (§1) Solid phase binding assays. Solid phase binding assays were used to study the ability of SAGEs to inhibit RAGE binding to its ligands. For studies of the effect of SAGEs on RAGE binding to its ligands, polyvinyl 96-well plates were coated with 5 μg/well of specific ligand (CML-BSA, HMGB-I or S100b calgranulin). Plates were incubated overnight at 4° C. and washed thrice with PBS-0.05% Tween-20 (PBST). Separately, RAGE-Fc chimera (100 μL containing 0.5 μg/ml in PBST-0.1% BSA) was incubated with an equal volume of serially diluted SAGEs (0.001 to 1,000 μg/ml in PBST-BSA) overnight at 4° C. The following day, 50 μL of RAGE-SAGE mix was transferred to each respective ligand-coated well and incubated at 37° C. for 2 h. Wells were then washed four times with PBST. To detect bound RAGE, 50 μL of anti-RAGE antibody (0.5 μg/ml) was added to each well, the mixture was incubated for 1 h at room temperature, and wells were washed again four times with PBST. Horse-radish peroxidase conjugated secondary antibody (1:10,000 antibody dilution in PBST; 50 μL per well) was added, wells were incubated for 1 h at room temperature, and then washed once with PBST. A colorimetric reaction was initiated by addition of 50 μL of tetramethyl benzidine chromogen (TMB single solution chromogen) and terminated after 15 min by addition of 50 μL of 1 N HCl. Absorbance at 450 nm was read using an automated microplate reader.
# human leukocyte elastase = target: T2, human leukocyte elastase (Homo sapiens, UniProt P08246); test: Human leukocyte elastase activity assay, chromogenic substrate; format: biochemical; settings: for Leukocyte Elastase: Table 2
# T2 sequence (P08246 30-267): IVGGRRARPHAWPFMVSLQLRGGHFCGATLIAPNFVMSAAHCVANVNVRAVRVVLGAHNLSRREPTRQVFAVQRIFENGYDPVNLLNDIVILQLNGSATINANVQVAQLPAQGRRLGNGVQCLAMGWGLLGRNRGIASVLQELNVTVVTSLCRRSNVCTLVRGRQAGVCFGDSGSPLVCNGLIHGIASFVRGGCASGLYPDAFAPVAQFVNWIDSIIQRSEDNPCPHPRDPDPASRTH
# Description: Enzymatic assays. […] Nat Biotech 26:669-675, 2008).
# ARPE-19 cells = test: AGE-induced apoptosis of ARPE-19 cells (Live/Dead stain); format: cell-based, human; settings: AGE-BSA 25 μM, 40 h, test substance 200 μM
# Method: The ability of AGE products to induce RPE cell apoptosis was investigated. ARPE-19 cells were grown to confluence on round coverslips, then transferred to new dishes for exposure to 25 μM AGE-BSA for 40 h. Apoptosis was then assayed with Molecular Probes Fixable Live/Dead Cell Stain Kit (LI 1101, Eugene, Oreg.). […] Nuclei are stained […] with DAPI; dead cells are stained green. A. BSA control. Some dead cells are noted at the edges of the coverslip, but live and dead cells are interspersed at the interface. B. AGE-BSA (25 μM). Significant cell death is seen around the edges, and the boundary between live and dead cells is stark. C. AGE-BSA (25 μM)+ODSH (200 μM). […] D. AGE-BSA (25 μM)+P-OSMeHA (200 μM) (GM-11 1101). […] Apoptosis appeared to advance inward from the edges of cells cultured on round cover slips. RAGE is prominently expressed in RPE cells where it may be selectively expressed on the basal membrane as in other human epithelial cells. […] In contrast, AGE in drusen, which accumulates between retinal pigment epithelium and Bruch's membrane, would have ready access to basally located RAGE, optimally positioning AGE/RAGE signaling to mediate the localized RPE apoptosis that constitutes so-called “geographic atrophy” in age-related macular degeneration. […]
# P-Selectin/PSGL = target: T3, P-Selectin/PSGL (Homo sapiens, UniProt P16109); test: U937 monocyte binding to P-selectin (cell binding assay); settings: Table 2; U937 binding to P-selectin-Fc
# T3 construct: purchased R&D Systems (Minneapolis, Minn.)
# Method: (§2) Cell Binding Assays. The effect of SAGEs on binding of U937 monocytes to P-selectin or RAGE was studied in high-bind micro plates coated with 8 μg/ml protein A ([…]) in 0.2 M carbonate-bicarbonate buffer (pH 9.4). Plates were washed with phosphate buffered saline containing 1% BSA (PBS-BSA), and P-selectin-Fc or RAGE-Fc chimera (50 μL containing 1 μg) was added to each well and incubated for 2 h at room temperature or overnight at 4° C., respectively. Following incubation, wells were washed twice with PBS-BSA. […] As a negative control, 50 μL of 10 mM EDTA was added to select wells to prevent cell binding through sequestration of calcium. At the end of the incubation period, 50 μL of U937 cells (10^5 cells/well, calcein-labeled according to manufacturer's instructions) were added to each well and plates were incubated an additional 30 min at room temperature. The wells were then washed thrice with PBS, and bound cells were lysed by addition of 100 μL of Tris-TritonX-100 containing buffer. Fluorescence was measured on a microplate reader using excitation of 494 nm and emission of 517 nm.
# RAGE/HMGB1 = target: T4, RAGE/HMGB1 (Homo sapiens, UniProt Q15109); test: Solid phase binding assay, RAGE to HMGB-1 (amphoterin); settings: Table 2
# T4 construct: purchased R&D Systems (Minneapolis, Minn.)
# Method: as §1
# RAGE/Mac-1 = target: T5, RAGE/Mac-1 (Homo sapiens, UniProt Q15109); test: U937 monocyte binding to RAGE (cell binding assay); settings: Table 2; U937 binding to RAGE-Fc
# T5 construct: purchased R&D Systems (Minneapolis, Minn.)
# Method: as §2
# RAGE/S100B = target: T6, RAGE/S100B (Homo sapiens, UniProt Q15109); test: Solid phase binding assay, RAGE to S100b calgranulin; settings: Table 2
# T6 construct: purchased R&D Systems (Minneapolis, Minn.)
# Method: as §1
# RAGE = test: CML-BSA-induced RAGE expression in ARPE-19 cells (immunoblot); format: cell-based, human; settings: cells grown on CML-BSA
# Description: Activated complement and RAGE induce angiogenic and pro-inflammatory signaling in cultured RPE cells. Experiments studying the biology of RAGE in cultured RPE cells using the ARPE-19 human RPE cell line were consucted. As shown in immunoblots (FIG. 17), ARPE-19 cells express at least 4 isoforms of RAGE ranging from 45-50 kDa in cell lysates, and secrete these isoforms into conditioned media. […] Because RAGE ligation activates the transcription factor NF-κB, enhanced expression of RAGE greatly promotes pro-inflammatory signaling. […] This would prevent “feed-forward” pro-inflammatory increases in RAGE expression itself by RAGE ligation.
# LL-37 injected skin = test: SAGE topical treatment LL-37 rosacea model; format: in vivo, Balb/c mice; settings: topical administration
# Method: SAGE topical treatment rosacea model. Balb/c mice were shaved […] area of skin on the back. We then began topical application of a hyaluronan-cased emollient containing 5% SAGEs (active emollient) or hyaluronic acid based emollient alone to this area of skin every 12 hours. Twenty-four hours later, we injected 40 μL of vehicle (PBS) or cationic peptide (at 320 μM concentration) subcutaneously into the shaved skin in the manner described previously. Injections and topical emollient applications were repeated every 12 h thereafter. Forty-eight hours after the initial injection (four injections in total), animals were lightly anesthetized as described previously. […] The intensity of erythema was assessed as a redness score (from 1 to 5), and the area of erythema was measured with calipers. […]
# Myeloperoxidase (MPO) assay. […] Tissue MPO activity was measured using a method by Suzuki et. al. (Suzuki K, Ota H, Sasagawa S, Sakatani T, Fujikura T. Assay method for myeloperoxidase in human polymorphonuclear leukocytes. Anal Biochem 132:345-352, 1983) as modified by Young et. al. (Young J M, Spires D A, Bedord C J, Wagner B, Ballaron S J, De oung L M. The mouse ear inflammatory response to typical arachidonic acid. J Invest Dermatol 82:367-371, 1984). […] The homogenate was transferred quantitatively to a microcentrifuge tube with an additional 0.75 mL HTAB in PBS. […]
# [1] = target: T7, Hageman factor (Factor XII) (Homo sapiens, UniProt P00748)
# T7 sequence (P00748 20-615): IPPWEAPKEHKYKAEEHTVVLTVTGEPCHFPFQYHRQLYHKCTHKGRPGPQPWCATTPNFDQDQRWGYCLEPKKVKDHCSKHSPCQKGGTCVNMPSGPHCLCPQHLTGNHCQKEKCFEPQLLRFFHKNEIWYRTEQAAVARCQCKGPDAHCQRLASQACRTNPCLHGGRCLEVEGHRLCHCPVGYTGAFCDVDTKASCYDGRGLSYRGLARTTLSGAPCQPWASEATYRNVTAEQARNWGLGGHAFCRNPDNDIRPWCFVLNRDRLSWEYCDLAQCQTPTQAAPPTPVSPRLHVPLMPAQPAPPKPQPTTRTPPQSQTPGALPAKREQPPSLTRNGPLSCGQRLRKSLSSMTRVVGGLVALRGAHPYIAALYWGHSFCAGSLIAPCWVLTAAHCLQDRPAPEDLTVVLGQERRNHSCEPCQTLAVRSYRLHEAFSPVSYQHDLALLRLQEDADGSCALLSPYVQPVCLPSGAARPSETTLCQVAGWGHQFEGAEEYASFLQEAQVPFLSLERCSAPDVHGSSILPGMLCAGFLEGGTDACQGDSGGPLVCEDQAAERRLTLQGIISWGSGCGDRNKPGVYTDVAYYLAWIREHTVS
# Method: Enzymatic assays. […] Pooled human plasma (5 μl) was incubated with 100 μl of SAHA (0.1 to 1000 μg/ml) in 0.05 M HEPES containing Triton X-100 for 5 min at 5° C.
# SAGEs were screened for their ability to stimulate intrinsic coagulation (activation of Hageman factor). Pooled human plasma was incubated with heparin or low molecular weight (Lmw) sulfated and fluoroalkylated HAs (Lmw-OSFHA-1, Lmw-OSFHA-2) and amidolytic activity was determined using the substrate D-cyclohydrotyrosyl-Gly-Arg-p-NA.
# [2] = tested on: human neonatal epidermal keratinocytes; test: Keratinocyte proliferation assay; format: cell-based; settings: high molecular weight derivatives, 100 μg/ml, FIG. 8
# Method: Fourth, SAGEs are potent inhibitors of the proliferation of human keratinocytes. In these assays human neonatal epidermal keratinocytes were cultured in the presence and absence of SAGEs or other inhibitors, and proliferation was measured by adding a dye that is reduced in direct proportion to the number of viable cells present.
# nHEK cells = test: Cytotoxicity (MTS); format: cell-based, human; settings: up to 10 mg/ml
# T3 sequence (P16109 with tags, fused parts or gaps limits assumed): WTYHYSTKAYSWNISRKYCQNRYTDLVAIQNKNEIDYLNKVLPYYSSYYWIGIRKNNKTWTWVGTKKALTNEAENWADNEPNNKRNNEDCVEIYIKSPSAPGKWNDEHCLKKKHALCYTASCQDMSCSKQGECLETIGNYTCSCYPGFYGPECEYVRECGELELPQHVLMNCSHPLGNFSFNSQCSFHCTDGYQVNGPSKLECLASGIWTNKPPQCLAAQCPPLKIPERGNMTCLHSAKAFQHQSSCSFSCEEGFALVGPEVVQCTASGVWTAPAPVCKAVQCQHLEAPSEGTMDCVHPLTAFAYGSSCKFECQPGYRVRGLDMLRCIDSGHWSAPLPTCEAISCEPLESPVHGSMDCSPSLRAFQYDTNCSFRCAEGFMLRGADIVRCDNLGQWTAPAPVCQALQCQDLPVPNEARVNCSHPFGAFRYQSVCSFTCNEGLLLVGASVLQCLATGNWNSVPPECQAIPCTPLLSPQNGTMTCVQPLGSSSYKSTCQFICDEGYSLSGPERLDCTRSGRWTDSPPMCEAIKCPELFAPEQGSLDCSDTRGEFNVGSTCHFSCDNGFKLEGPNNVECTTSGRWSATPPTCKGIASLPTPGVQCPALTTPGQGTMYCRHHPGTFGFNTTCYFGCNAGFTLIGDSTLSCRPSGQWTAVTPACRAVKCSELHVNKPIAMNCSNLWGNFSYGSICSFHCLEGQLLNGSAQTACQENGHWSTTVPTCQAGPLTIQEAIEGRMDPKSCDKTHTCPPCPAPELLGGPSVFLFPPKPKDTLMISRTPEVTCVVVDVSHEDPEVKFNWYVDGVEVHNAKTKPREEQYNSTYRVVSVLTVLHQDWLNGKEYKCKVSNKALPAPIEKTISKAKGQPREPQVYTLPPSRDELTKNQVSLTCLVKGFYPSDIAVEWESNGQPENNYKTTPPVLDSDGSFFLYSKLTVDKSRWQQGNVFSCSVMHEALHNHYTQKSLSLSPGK
# T1 sequence (Q15109 with tags, fused parts or gaps limits assumed): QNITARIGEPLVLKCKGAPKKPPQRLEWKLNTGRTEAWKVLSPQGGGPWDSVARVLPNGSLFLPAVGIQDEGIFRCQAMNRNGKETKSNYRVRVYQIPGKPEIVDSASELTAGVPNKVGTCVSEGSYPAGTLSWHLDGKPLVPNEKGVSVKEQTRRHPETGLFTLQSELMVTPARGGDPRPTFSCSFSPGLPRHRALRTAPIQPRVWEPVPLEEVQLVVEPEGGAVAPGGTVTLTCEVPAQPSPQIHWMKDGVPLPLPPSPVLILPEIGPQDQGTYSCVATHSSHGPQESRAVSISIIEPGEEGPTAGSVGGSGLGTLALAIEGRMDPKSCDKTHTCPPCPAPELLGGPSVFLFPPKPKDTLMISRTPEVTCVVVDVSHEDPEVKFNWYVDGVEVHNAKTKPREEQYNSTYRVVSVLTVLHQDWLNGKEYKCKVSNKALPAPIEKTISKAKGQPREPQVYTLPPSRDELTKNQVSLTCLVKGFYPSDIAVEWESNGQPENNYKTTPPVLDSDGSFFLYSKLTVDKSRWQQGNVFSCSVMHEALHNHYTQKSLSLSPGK
# T5 sequence (Q15109 with tags, fused parts or gaps limits assumed): as above
# T6 sequence (Q15109 with tags, fused parts or gaps limits assumed): as above
# T4 sequence (Q15109 with tags, fused parts or gaps limits assumed): as above
RAGE/CML-BSA (RAGE/CML-BSA),Leukocyte Elastase (human leukocyte elastase),P-Selectin/PSGL (P-Selectin/PSGL),RAGE/HMGB1 (RAGE/HMGB1),RAGE/Mac-1 (RAGE/Mac-1),RAGE/S100B (RAGE/S100B),Hageman Factor [1],"IC50 (human leukocyte elastase; FIG. 4, read-out: IC50 for HLE)",Substance,AGE-induced apoptosis (ARPE-19 cells),up-regulation of RAGE expression (RAGE),"inflammation and MPO activities, SAGE vs. HA (LL-37 injected skin)",inhibition of keratinocyte proliferation [2],toxicity to nHEK cells (nHEK cells)
8.6 µg/mL,0.22 µg/mL,1.1 µg/mL,0.23 µg/mL,0.09 µg/mL,4.2 µg/mL,,,"2-0, 3-0 desulfated heparin [ODSH, reference compound]",Apoptosis is reduced; also recorded: inhibited,prevented up-regulation of RAGE expression,,,
2.579 µg/mL,0.487 µg/mL,0.126 µg/mL,,28.4 µg/mL,8.82 µg/mL,400 µg/mL,,P—OSFHA-1(DS 2) [GM-231201],,,,,
,0.375 µg/mL,8.958 µg/mL,,,4.557 µg/mL,400 µg/mL,,P—OSFHA-2(DS 1) [GM-331101],,,,,
1.682 µg/mL,0.353 µg/mL,,,,2.28 µg/mL,40 µg/mL,,P—OSFHA-2(DS 2) [GM-331201],,,,,

# The remaining lines, values behind:
Substance,RAGE/CML-BSA (RAGE/CML-BSA),Leukocyte Elastase (human leukocyte elastase),P-Selectin/PSGL (P-Selectin/PSGL),RAGE/HMGB1 (RAGE/HMGB1),RAGE/Mac-1 (RAGE/Mac-1),RAGE/S100B (RAGE/S100B),Hageman Factor [1],"IC50 (human leukocyte elastase; FIG. 4, read-out: IC50 for HLE)",AGE-induced apoptosis (ARPE-19 cells),up-regulation of RAGE expression (RAGE),"inflammation and MPO activities, SAGE vs. HA (LL-37 injected skin)",inhibition of keratinocyte proliferation [2],toxicity to nHEK cells (nHEK cells)
"Hyaluronic Acid [HA, reference compound]",,,,,,,,,,,did not alleviate inflammation,,
P—OSFHA-1(DS 1) [GM-231101],,0.185 µg/mL,12.048 µg/mL,,,14.6 µg/mL,400 µg/mL,,,,,,
P—OSMeHA(DS 1) [GM-131101],6.09 µg/mL,0.285 µg/mL,5.61 µg/mL,2.68 µg/mL,0.51 µg/mL,31.069 µg/mL,,3.46 nM,,,,less active,non-toxic
P—OSMeHA(DS 2) [GM-131201],0.044 µg/mL,0.42 µg/mL,0.5 µg/mL,,0.3 µg/mL,0.06 µg/mL,0.4 µg/mL,,,,,,
